Read-outs that look alike come from different tables or passages of the source.
How the values were obtained:
[1] = test system: lens samples obtained from rat; assay: Activity for preventing the lens opacity (UV-irradiated cultured lens); format: cell-based, rat (Wistar strain, male, 6-10 week age); conditions: 1 h, read-out: Rate of the activity for preventing lens opacity
Description: The lens samples obtained from rat (Wistar strain, male, 6-10 week age) were placed on 24-well plate, and were cultured in DEMEM (Dulbecco's modified Eagle's medium manufactured by Nissui Pharmaceutical Co., Ltd.) at 37° C. overnight, a 5% CO2 environment was used. Under dissecting microscope observation, the lens samples having transparency were only selected to use the test. Thus selected lens samples were transferred to midium (1 ml) in which the test compound was dissolved. (As to the reference test, the medium without containing the test compound was used.) The ultraviolet rays in the intensity of 8.8 mW/cm^2 was irradiated for 60 minutes by using a fluorescent lamp (TOSHIBA FL-20SE) to the lens samples. After the irradiation, the medium was replaced to new medium containing the test compound and further cultured overnight. The medium without the test compound was replaced everyday during 3 days. By using a dissecting microscope, opacity of the lens samples were observed. The degrees of opacity of the lens samples was determined by deviding the field of vision into 8 fields as follows: Score 0: transparent; Score 1: some loss of transparency; and Score 2: completely opaque. Rate of activity for preventing the lens opacity was calculated from the following formula: [formula]

[2] = test system: skin homogenate of guinea pig; assay: Activity for inhibiting the formation of lipid peroxides (ultraviolet-B irradiated skin homogenate, TBA method); format: biochemical, albino guinea pig (Hartley strain, female); conditions: test compound 10^-4 M; UV 9.5 mW/cm^2, 60 minutes
Description: The activity for inhibiting the formation of lipid peroxides which are increasingly formed by exposed to the ultraviolet-B radiation to the skin homogenate of guinea pig was determined by a procedure of thiobarbituric acid method (TBA method).
The activity for inhibiting the formation of lipid peroxides can be evaluated by degree of decreasing the optical absorbance of the condensate of thus formed malondialdehyde with thiobarbituric acid, by adding a test sample of the cyclic amide derivative of the present invention to the homogenate.
That is, the hairs covering in the back of an albino guinea pig (Hartley strain, female) were clipped by using an electric hair clippers under anesthesia. After the enucleation of the hair clipped portion of the skin, the subcutaneous tissue of this skin was removed in cold physiological saline. Distilled water in an amount of 9 times by weight of the skin tissue was added to this skin subcutaneous tissue, then was subjected to homogenation and centrifugation (600 g, for 5 minutes) to obtain the supernatant liquid. 5 Microliters each of test sample solutions of various concentrations was added to 0.5 ml each of the supernatant liquid, then the ultraviolet ray in the intensity of 9.5 mW/cm^2 was irradiated for 60 minutes by using fluorescent lamps (TOSHIBA FL-20SE, manufactured by Toshiba Corporation) as a light source. As to the reference sample solution, the solvent for dissolution of the test compound was used in place of the test sample solution. After ultraviolet radiation, the amount of lipid peroxide being formed in the sample solution (TBA value) was measured by TBA method (cf. Analytical Biochemistry, 1979, Vol. 95, pp. 351-358), and the inhibition rate of lipid peroxide formation shown by the test sample was calculated by the following formula: [formula]

[3] = test system: skin erythema; assay: Activity for inhibiting skin erythema caused by ultraviolet radiation; format: in vivo, albino guinea pig (Hartley strain, female, 7-8 week age); conditions: for inhibition in vivo at 3 %: Cavia porcellus, UV 1.3-1.5 mW/cm^2 for 30 minutes, measured 24 hours later; for 50% inhibitory concentration (IC50) for inhibiting the skin erythema: three concentrations within 0.1 to 10%
Description: The hairs covering in the back of albino guinea pig (Hartley strain, female, 7-8 week age) were shaved by using an electric hair clippers and a shaver. In the next day, the guinea pig was fixed in Bowlman's cage, then a light shield tape (adhesive plaster for patch test), having 4 round holes of 1.5 cm in diameter was adhered on the hair clipped portion so as to provide 4 sites (round holes) to be exposed to the ultraviolet rays. […] Each one of the test sample solutions was prepared by dissolving each test compounds in three kinds of concentrations within 0.1 to 10%, and applied.

[4] = test compound 1 x 10^-4 M, UV 8.8 mW/cm^2, 60 minutes
[5] = 3% concentration of test compound, 10 μl topical, read-out: Rate of activity for inhibiting the skin erythema

Row | 50% inhibitory concentration (IC50) for inhibiting the skin erythema ([3]; topical) | Compound | inhibition at 100 µM [1, 4] | Inhibition rate of lipid peroxide formation [2] | inhibition in vivo at 3 % [3, 5] | other results
1 |  | C=CCc1cc2c(c(CC=C)c1O)CCC(=O)N2CCOC(C)=O [Example 103, 1-(2-Acetyloxyethyl)-5,7-diallyl-3,4-dihydro-6-hydroxy-2(1H)-quinolinone] | 57% |  |  | 
2 | 1.6 concentration in % | C=CCc1cc2c(c(CC=C)c1O)CCC(=O)N2CC1CCCCC1 [Example 44] |  | 100% | 63% | 
3 |  | C=CCOc1cccc(CN2C(=O)CCc3c2cc(CC=C)c(O)c3CC=C)c1 [Example 50] |  | 89% | 36% | 
4 | 1.3 concentration in % | C=CCc1cc2c(c(CC=C)c1O)CCC(=O)N2CC=C(C)C [Example 27, 5,7-diallyl-3,4-dihydro-6-hydroxy-1-prenyl-2(1H)-quinolinone] |  | 82% | 60% | 
5 |  | C=CCc1cc2c(c(CC=C)c1O)CCC(=O)N2C/C=C(\C)CCC=C(C)C [Example 48] |  | 95% | 37% | 
6 | 9.4 concentration in % | C=CCc1cc2c(c(CC=C)c1O)CCC(=O)N2CCCCCCCCCCO [Example 33, 5,7-diallyl-3,4-dihydro-6-hydroxy-1-(10-hydroxy)-decyl-2(1H)-quinolinone] |  | 83% | 18% | 
7 | 4.7 concentration in % | C=CCc1cc2c(sc(=O)n2CC=C)c(CC=C)c1O [Example 39, 6-hydroxy-3,5,7-triallylbenzothiazolinone] |  | 82% | 42% | 
8 |  | O=C1O[C@H]([C@@H](O)CO)C(O)=C1O [Vitamin C, reference compound] | -11% |  |  | inhibition at 1000 µM ([1]; test compound 10 x 10^-4 M, UV 8.8 mW/cm^2, 60 minutes): 84%
9 |  | C=CCc1cc2c(c(CC=C)c1O)CCC(=O)N2C(C)C [Example 98] | 45% |  |  | 
10 |  | C=CCc1cc2c(c(CC=C)c1O)CCC(=O)N2C(C)C(=O)O (centres unmarked) [Example 115, Sodium 2-(5,7-Diallyl-6-hydroxy-1,2,3,4-tetrahydro-2-oxoquinolin-1-yl)propionate] |  |  |  | inhibition in vivo at 3 % ([3]; topical, 24 h, read-out: Rate of activity for inhibiting the skin erythema, 3% concentration of test compound, 10 μl topical): 33%; inhibition at 100 µM [1]: 63%
11 |  | C=CCc1cc2c(c(CC=C)c1O)N(CC=C(C)C)C(=O)CC2 [Example 28, 6,8-diallyl-3,4-dihydro-7-hydroxy-1-prenyl-2(1H)-quinolinone] |  | 80% | 30% | 
12 |  | C=CCc1cc2c(c(CC=C)c1O)CCC(=O)N2c1ccc(OC)c(OC)c1 [Example 60] |  | 83% | 27% | 
13 |  | C=CCc1cc2c(c(CC=C)c1O)CCC(=O)N2CCCN.Cl [Example 67, 1-(3-aminopropyl)-5,7-diallyl-3,4-dihydro-6-hydroxy-2(1H)-quinolinone hydrochloride] | 40% | 75% | 31% | 
14 | 2.0 concentration in % | C=CCc1cc2c(c(CC=C)c1O)CCC(=O)N2CC(C)C [Example 41] | 55% | 96% | 57% | 
15 |  | C=CCc1cc2c(c(CC=C)c1O)CCC(=O)N2CCCCCCCC [Example 101] | 55% |  | 37% | 
16 |  | C=CCOc1cc2c(cc1CC=C)CCC(=O)N2CC=C(C)C [Example 20, 6-allyl-7-allyloxy-3,4-dihydro-1-prenyl-2(1H)-quinolinone] |  | 81% | 37% | 
17 | 6.5 concentration in % | C=CCc1c(O)ccc2c1CCC(=O)N2CCCCCCCCCCO [Example 63] |  | 81% | 35% | 
18 |  | C=CCc1cc2c(c(CC=C)c1O)CCC(=O)N2 [Example 26, 5,7-diallyl-3,4-dihydro-6-hydroxy-2(1H)-quinolinone] |  | 80% | 36% | 
19 |  | C=CCc1cc2c(cc1O)CCC(=O)N2CC=C(C)C [Example 10, 7-allyl-3,4-dihydro-6-hydroxy-1-prenyl-2(1H)-quinolinone] |  | 82% | 38% | 
20 | 5.6 concentration in % | C=CCc1cc2c(c(CC=C)c1O)CCC(=O)N2C [Example 40] |  | 84% | 23% | 
21 |  | C=CCc1cc2c(c(CC=C)c1O)CCC(=O)N2CCCNC(N)=O [Example 68, 5,7-diallyl-3,4-dihydro-6-hydroxy-1-(3-ureidopropyl)-2(1H)-quinolinone] |  | 68% | 43% | 
22 |  | C=CCc1cc2c(c(CC=C)c1O)CCC(=O)N2CCO [Example 109, 5,7-diallyl-3,4-dihydro-6-hydroxy-1-(2-hydroxyethyl)-2(1H)-quinolinone] | 66% |  |  | 

Row | Compound | 50% inhibitory concentration (IC50) for inhibiting the skin erythema ([3]; topical) | inhibition at 100 µM [1, 4] | Inhibition rate of lipid peroxide formation [2] | inhibition in vivo at 3 % [3, 5] | other results
23 | C=CCc1cc2c(c(CC=C)c1O)CCC(=O)N2CC(=O)O [Example 76, 1-(carboxymethyl)-5,7-diallyl-3,4-dihydro-6-hydroxy-2(1H)-quinolinone] | 3.1 concentration in % |  | 68% | 50% | 
